Laboratory results reported in patent publication US8940728B2 (priority 2012, dated 2015).
Where two headings read alike, the source gives them in different places.

Legend:
a3b4 nAChRs [1] = biological target: T1, a3b4 nAChRs (Homo sapiens, UniProt P30926+P32297); assay: FLIPR Ca+2 flux assay, epibatidine-induced calcium response, SH-SYSY cells; format: cell-based
Procedure: (§1) The HEK293 (a3b4, a4b2 and a7) and SH-SYSY cell lines (a3b4) expressing nAChRs are used. Validated assays optimized with respect to sensitivity, dynamic range, signal intensity and stability for chemical probe validation and SAR refinement are used.
(§2) Nicotinic functional assays are performed using the Molecular Devices FLIPR® Calcium 5 Assay Kit. HEK293 cells overexpressing α3β4, α4β2 or α7 (50,000 cells per well in 100 μl growth media) and are plated in clear bottom black walled 96-well microplates and incubated for 24-48 hours at 37° C., 5% CO2 until a 80-90% confluent monolayer is formed. On the day of the assay, 100 μl of Calcium 5 Dye is added to each well. Following addition of dye, cells are incubated at 25° C. for 60 minutes. Following dye loading, 50 μl of a 5× solution of reference or test compound of appropriate concentration range (0.01-30 μM), prepared in 20 mM HEPES pH 7.4 in HBSS, is added to each well. Plates are then transferred to the Molecular Devices Flexstation® which transfers 50 μL of a 5× solution (500 nM) of epibatine to each well to initiate the Ca+2 flux. […] The RFU (relative fluorescence units) in the presence of the test or reference compounds is then expressed on the percent scale. The percent inhibition of epibatidine induced Ca^+2 flux is calculated as follows: % inhibition=100%−% RFU (relative fluorescence units). […]

[2] = biological target: T2, α3β4 nicotinic receptor subtype (Homo sapiens, UniProt P30926+P32297); assay: cell-based
T2 construct: SH-SYSY cells predominantly express the α3β4 nicotinic receptor subtype; endogenous in cells; host or cells: SH-SYSY (SH-SY5Y) cells
T2 sequence (P32297 32-505): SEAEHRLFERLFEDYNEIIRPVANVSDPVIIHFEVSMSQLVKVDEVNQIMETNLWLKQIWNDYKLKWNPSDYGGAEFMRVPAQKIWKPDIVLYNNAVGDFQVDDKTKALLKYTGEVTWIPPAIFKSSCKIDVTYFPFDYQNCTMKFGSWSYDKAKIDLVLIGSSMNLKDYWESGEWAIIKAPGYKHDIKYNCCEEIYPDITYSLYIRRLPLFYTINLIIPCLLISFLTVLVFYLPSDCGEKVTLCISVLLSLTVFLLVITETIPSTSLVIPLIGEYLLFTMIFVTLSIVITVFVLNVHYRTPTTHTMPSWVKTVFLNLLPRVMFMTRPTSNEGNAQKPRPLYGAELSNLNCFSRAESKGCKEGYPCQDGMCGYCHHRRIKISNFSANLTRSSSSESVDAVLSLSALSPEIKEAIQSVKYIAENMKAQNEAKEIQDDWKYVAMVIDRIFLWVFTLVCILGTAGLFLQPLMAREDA
T2 sequence (P30926 22-498): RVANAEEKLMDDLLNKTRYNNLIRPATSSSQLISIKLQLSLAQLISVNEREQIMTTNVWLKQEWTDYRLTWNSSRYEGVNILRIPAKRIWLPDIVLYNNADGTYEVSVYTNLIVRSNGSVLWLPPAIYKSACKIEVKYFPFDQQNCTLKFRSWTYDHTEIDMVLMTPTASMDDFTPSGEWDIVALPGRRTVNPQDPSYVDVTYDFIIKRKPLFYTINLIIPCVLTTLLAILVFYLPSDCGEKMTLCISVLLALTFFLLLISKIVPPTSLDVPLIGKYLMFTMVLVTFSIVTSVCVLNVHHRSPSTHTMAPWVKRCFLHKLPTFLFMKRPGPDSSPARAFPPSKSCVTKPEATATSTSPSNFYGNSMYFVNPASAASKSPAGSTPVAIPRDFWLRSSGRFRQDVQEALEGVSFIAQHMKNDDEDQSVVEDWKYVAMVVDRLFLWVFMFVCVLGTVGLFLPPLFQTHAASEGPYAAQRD
Text: as §1

a3b4 nAChRs [3] = biological target: T1, a3b4 nAChRs; assay: Relative potency on epibatidine-induced calcium response at a3b4 nAChRs; format: cell-based
Procedure: as §1
Nicotinic functional assays are performed using the Molecular Devices FLIPR® Calcium 5 Assay Kit. HEK293 cells overexpressing α3β4, α4β2 or α7 (50,000 cells per well in 100 μl growth media) and are plated in clear bottom black walled 96-well microplates and incubated for 24-48 hours at 37° C., 5% CO2 until a 80-90% confluent monolayer is formed. On the day of the assay, 100 μl of Calcium 5 Dye is added to each well. Following addition of dye, cells are incubated at 25° C. for 60 minutes. Following dye loading, 50 μl of a 5× solution of reference or test compound of appropriate concentration range (0.01-30 μM), prepared in 20 mM HEPES pH 7.4 in HBSS, is added to each well. Plates are then transferred to the Molecular Devices Flexstation® which transfers 50 μL of a 5× solution (500 nM) of epibatine to each well to initiate the Ca+2 flux. Additional wells (in quadruplicate) are prepared with no added test or reference ligand for measurement of 100% flux. The RFU (relative fluorescence units) in the presence of the test or reference compounds is then expressed on the percent scale. The percent inhibition of epibatidine induced Ca^+2 flux is calculated as follows: % inhibition=100%−% RFU (relative fluorescence units). The IC50 values for reference and test compounds are obtained by fitting normalized RFU data using Graphpad Prism software.

[4] = CNS penetration across the brain blood barrier; settings: in vivo
Procedure: Mice are dosed with compounds. Brain to blood ratios are determined by HPLC and LC/MS/MS analysis following oral administration of the test compounds in mice.

[5] = Binding panel of over 50 receptors, transporters, ion channels, second messengers, growth factor receptors and enzymes; settings: at physiologically relevant concentrations
Text: The association between cigarette smoking and the presence and severity of suicidal behavior across major psychiatric disorders may be related to lower brain serotonin function in smokers with depression).

a3b4 nAChRs [6] = biological target: T1, a3b4 nAChRs; assay: FLIPR Ca+2 flux assay, epibatidine-induced calcium response, A3B4-HEK cells; format: cell-based
Procedure: as §1, §2

5-HT transporter = 5-HT transporter (Homo sapiens, UniProt P31645); assay: 5-HT transporter radioligand binding
Chain of 5-HT transporter (P31645 whole entry): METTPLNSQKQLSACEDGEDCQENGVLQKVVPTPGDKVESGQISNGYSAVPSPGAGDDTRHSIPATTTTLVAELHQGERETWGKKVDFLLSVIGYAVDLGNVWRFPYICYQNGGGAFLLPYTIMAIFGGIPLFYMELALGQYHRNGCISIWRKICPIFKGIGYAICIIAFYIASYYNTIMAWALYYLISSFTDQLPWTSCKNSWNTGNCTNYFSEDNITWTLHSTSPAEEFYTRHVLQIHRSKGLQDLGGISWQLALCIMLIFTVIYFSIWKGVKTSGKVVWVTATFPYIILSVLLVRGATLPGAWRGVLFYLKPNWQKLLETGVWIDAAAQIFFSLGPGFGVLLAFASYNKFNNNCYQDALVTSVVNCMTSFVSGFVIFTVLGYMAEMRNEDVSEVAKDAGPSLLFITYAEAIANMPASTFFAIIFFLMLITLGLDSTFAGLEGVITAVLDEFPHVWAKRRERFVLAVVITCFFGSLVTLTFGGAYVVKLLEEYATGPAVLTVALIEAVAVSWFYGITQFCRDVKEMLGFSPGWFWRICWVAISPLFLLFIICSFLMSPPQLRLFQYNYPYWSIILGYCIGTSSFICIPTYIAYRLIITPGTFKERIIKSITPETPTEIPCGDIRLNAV
Procedure: (§3) Established radioligand binding methods are used to evaluate the ability of the compounds to block reuptake of serotonin and dopamine in membrane preparations of synaptosomes. Equilibrium binding affinity values is determined for each compound at opioid receptors (μ and κ subtypes) and biogenic amine transporters (DAT and SERT). Where possible, binding experiments utilize membranes derived from CHO or HEK293 cells engineered to overexpress the human form of the receptor or transporter of interest. Radiolabeling of opioid receptors, and biogenic amine transporters utilizes conventional radioligands, buffers and incubation conditions according to published assays.
(§4) Test compounds, reference compounds and the radioligand (Kd value) are added to binding buffer. Assays are run with test or reference compound over a range of concentration (0.0001-10 uM) in triplicate using a 96-well sample plate containing radioligands specific for the target receptor or transporter. […] Bound radioactivity is counted in a Microbeta scintillation counter. Total bound radioactivity is estimated from triplicate wells containing no test or reference compound, together with nonspecific binding and filter blanks. The average bound radioactivity in the presence of the test compounds is expressed % inhibition=100%−% radioactivity bound. […]

mu opioid receptor (mOR) = biological target: T3, mu opioid receptor (mOR) (Homo sapiens, UniProt P35372); assay: Mu opioid receptor radioligand binding
T3 construct: expressed in transfected cells; host or cells: CHO or HEK293
T3 sequence (P35372 whole entry): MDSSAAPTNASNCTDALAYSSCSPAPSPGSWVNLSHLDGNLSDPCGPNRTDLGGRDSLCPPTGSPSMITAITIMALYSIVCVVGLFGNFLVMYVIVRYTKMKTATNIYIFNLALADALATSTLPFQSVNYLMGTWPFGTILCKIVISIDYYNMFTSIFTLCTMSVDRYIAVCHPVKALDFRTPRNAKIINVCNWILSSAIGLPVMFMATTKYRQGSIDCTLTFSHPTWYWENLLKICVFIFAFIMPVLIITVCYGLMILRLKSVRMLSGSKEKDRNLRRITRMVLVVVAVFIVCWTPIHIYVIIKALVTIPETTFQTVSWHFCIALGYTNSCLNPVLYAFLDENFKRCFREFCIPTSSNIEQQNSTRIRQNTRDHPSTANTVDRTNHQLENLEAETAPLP
Procedure: as §3, §4

[7] = biological target: T4, kappa opioid receptor (kOR) (Homo sapiens, UniProt P41145); assay: Kappa opioid receptor radioligand binding
T4 construct: expressed in transfected cells; host or cells: CHO or HEK293
T4 sequence (P41145 whole entry): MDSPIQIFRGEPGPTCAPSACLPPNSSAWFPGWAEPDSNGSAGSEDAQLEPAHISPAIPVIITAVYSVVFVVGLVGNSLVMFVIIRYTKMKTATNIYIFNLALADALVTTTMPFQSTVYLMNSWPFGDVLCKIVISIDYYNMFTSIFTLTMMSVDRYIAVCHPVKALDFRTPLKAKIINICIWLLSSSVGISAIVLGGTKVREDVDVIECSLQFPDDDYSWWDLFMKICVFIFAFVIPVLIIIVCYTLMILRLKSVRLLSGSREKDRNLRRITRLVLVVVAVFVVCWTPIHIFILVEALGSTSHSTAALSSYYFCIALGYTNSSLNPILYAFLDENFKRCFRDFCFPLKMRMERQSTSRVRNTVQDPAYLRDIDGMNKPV
Procedure: as §3, §4

T1 sequence (P30926 22-498): as the sequence (P30926 22-498) above
T1 sequence (P32297 32-505): as the sequence (P32297 32-505) above

Row | Compound | IC50 (a3b4 nAChRs [1]; SH-SYSY cells, read-out: IC50 (uM) SH-SYSY, inhibition of epibatidine-induced calcium response) [µM] | IC50 ([2]; Caliper, read-out: IC50 (uM) Caliper, inhibition of epibatidine-induced calcium response) [µM] | IC50 ([2]; SH-SYSY cells, preliminary studies by Caliper Life Sciences, read-out: IC50 as antagonist for epibatine induced Ca+2 flux) [µM] | IC50 (a3b4 nAChRs [3]; reference value for the ratios of Table 4, read-out: Potency of 18-MC at a3b4 nAChRs taken as reference) [µM] | Ratio from 18-MC (relative potency at a3b4 nAChRs) (a3b4 nAChRs [3]; relative to 18-MC = 1 (4 uM)) | Crossing of the BBB and concentration in brain [4] | IC50 (a3b4 nAChRs [1]) [µM] | Targets bound in the panel [5] | IC50 (a3b4 nAChRs [6]) [µM] | IC50 ([2]; IC50 (uM) Caliper, inhibition of epibatidine-induced calcium response, Caliper) [µM] | IC50 ([2]; IC50 as antagonist for epibatine induced Ca+2 flux, SH-SYSY cells, preliminary studies by Caliper Life Sciences) [µM] | Affinity to the 5-HT transporter (5-HT transporter) [nM] | Affinity at mu opioid receptors (mu opioid receptor (mOR)) [nM] | Affinity at kappa opioid receptors [7] [µM] | Potency as inhibitor of epibatidine-induced calcium response compared with 18-MC and noribogaine (a3b4 nAChRs [3]; in words)
1 | COCC[C@H]1CC2CN3CCc4c([nH]c5ccccc45)[C@](C(=O)OC)(C2)[C@H]13 [Compound 18-MC, 18-methoxycoronaridine] | 3.9 | 3.9 | 3.89 | 4 | 1 | cross the BBB and reach micromolar concentrations in brain | – | – | – | – | – | – | – | – | –
2 | CC[C@H]1CC2C[C@H]3c4[nH]c5ccc(O)cc5c4CCN(C2)C13 [Noribogaine, 12-hydroxyibogamine] | – | – | – | – | – | cross the BBB and reach micromolar concentrations in brain | 0.3 | only bound to SERT, DAT, mu and kappa opioid receptors | 18 | 1 | 0.462 | 50 | 900 | 1 | –
3 | Ibogaine | – | – | – | – | – | – | – | – | – | – | – | – | – | – | more potent inhibitors than 18-MC
